# Results from patent US20090124672A1 (priority 2007, published 2009).
# Target: T1, hALDH2 (recombinant human mitochondria ALDH) (Homo sapiens, UniProt P05091)
# T1 sequence (P05091 18-517): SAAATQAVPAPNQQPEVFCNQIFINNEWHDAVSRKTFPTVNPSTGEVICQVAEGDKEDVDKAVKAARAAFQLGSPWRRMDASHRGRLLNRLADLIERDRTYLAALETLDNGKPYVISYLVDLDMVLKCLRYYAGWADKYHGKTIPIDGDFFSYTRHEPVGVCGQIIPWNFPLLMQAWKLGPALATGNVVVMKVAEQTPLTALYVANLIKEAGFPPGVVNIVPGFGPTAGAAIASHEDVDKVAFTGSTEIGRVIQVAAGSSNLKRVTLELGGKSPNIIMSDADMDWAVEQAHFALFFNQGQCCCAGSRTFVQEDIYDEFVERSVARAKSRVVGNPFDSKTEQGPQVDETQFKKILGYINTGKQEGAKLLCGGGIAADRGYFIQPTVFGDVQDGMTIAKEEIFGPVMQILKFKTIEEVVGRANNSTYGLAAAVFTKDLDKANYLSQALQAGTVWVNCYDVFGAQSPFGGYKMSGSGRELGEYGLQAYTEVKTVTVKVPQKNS
# Experiment: ALDH2 inhibition assay (NADH formation, formaldehyde substrate)
# Type: biochemical
# Details: not given
# Description: ALDH2 inhibition assays were performed in sodium phosphate buffer (50 mM, pH 7.4) containing 1.2 mM NAD^+ (Sigma N7004), 1 nM hALDH2 (recombinant human mitochondria ALDH), various concentrations of test compounds (from 0.03 nM to 1000 nM), and 0.15 mM freshly prepared formaldehyde solution (Ladd Research 20295). Reactions were initiated by the addition of formaldehyde and rates were recorded by monitoring NADH formation in a temperature controlled (25° C.) FluoroMax-2 Fluorimeter with excitation and emission wavelengths set at 340 and 460 nm, respectively. […] Normally, IC50 values were determined by fitting concentration-inhibition data to sigmoidal dose-response curves with two-floating parameters: IC50 and Hill coefficient. When tight binding situation was suspected, apparent Ki values were estimated by fitting dose-response data to Morrison's equation [Methods in Enzymology 63, 437-467, 1979].
row,IC50 [nM],SMILES
1,62,"O=c1c(-c2ccc(O)cc2)coc2cc(OCc3noc(-c4cccc(F)c4)n3)ccc12 [PT-42, 7-{[5-(3-fluorophenyl)(1,2,4-oxadiazol-3-yl)]methoxy}-3-(4-hydroxyphenyl)chromen-4-one]"
2,470,"O=c1c(-c2ccc(O)cc2)coc2cc(OCc3nc(-c4ccccc4)no3)ccc12 [PT-43, 3-(4-hydroxyphenyl)-7-[(3-phenyl(1,2,4-oxadiazol-5-yl))methoxy]chromen-4-one]"
3,270,"O=c1c(-c2ccc(O)cc2)coc2cc(OCc3nc(-c4ccc(Cl)cc4)no3)ccc12 [PT-44, 3-(4-hydroxyphenyl)-7-({3-[4-chlorophenyl](1,2,4-oxadiazol-5-yl)}methoxy)chromen-4-one]"
4,140,"CS(=O)(=O)Nc1ccc(-c2coc3cc(OCc4noc(-c5ccc(F)cc5)n4)ccc3c2=O)cc1 [PT-48, 7-{[5-(4-fluorophenyl)(1,2,4-oxadiazol-3-yl)]methoxy}-3-{4-[(methylsulfonyl)amino]-phenyl}chromen-4-one]"
5,16,"O=C(O)c1cnc(COc2ccc3c(=O)c(-c4ccc(O)cc4)coc3c2)o1 [PT-49, 2-{[3-(4-hydroxyphenyl)-4-oxochromen-7-yloxy]methyl}-1,3-oxazole-5-carboxylic acid]"
6,5,"O=c1c(-c2ccc(O)cc2)coc2cc(OCNCc3cccc(C(F)(F)F)c3)ccc12 [PT-54, 3-(4-hydroxyphenyl)-7-[({[3-(trifluoromethyl)phenyl]methyl}amino)methoxy]chromen-4-one]"
7,72,"O=c1c(-c2ccc(O)cc2)coc2cc(OCc3cc(-c4cc(C(F)(F)F)cc(C(F)(F)F)c4)on3)ccc12 [PT-62, 7-({5-[3,5-bis(trifluoromethyl)phenyl]isoxazol-3-yl}methoxy)-3-(4-hydroxyphenyl)chromen-4-one]"
8,180,"N#Cc1ccc(-c2coc3cc(OCc4cc(-c5cccc(C(F)(F)F)c5)no4)ccc3c2=O)cc1 [PT-69, 4-[4-oxo-7-({3-[3-(trifluoromethyl)phenyl]isoxazol-5-yl}methoxy)chromen-3-yl]benzenecarbonitrile]"
9,122,"O=c1c(-c2ccc(O)cc2)coc2cc(OCc3cnc(-c4ccc(C(F)(F)F)cc4)s3)ccc12 [PT-77, 3-(4-hydroxyphenyl)-7-({2-[4-(trifluoromethyl)phenyl](1,3-thiazol-5-yl)}methoxy)chromen-4-one]"
10,139,"O=C(COc1ccc2c(=O)c(-c3ccc(O)cc3)coc2c1)c1cccc(F)c1 [PT-78, 7-[2-(3-fluorophenyl)-2-oxoethoxy]-3-(4-hydroxyphenyl)chromen-4-one]"
11,4,"O=c1c(-c2ccc(O)cc2)coc2cc(OCc3nnc(-c4ccccc4Cl)o3)ccc12 [PT-80, 7-{[5-(2-chlorophenyl)(1,3,4-oxadiazol-2-yl)]methoxy}-3-(4-hydroxyphenyl)chromen-4-one]"

# Same assay, conditions: at 1 μM
row,hALDH2 inhibition (IC50 hALDH2 column) [%],SMILES
1,14,"O=c1c(-c2cn[nH]c2)coc2cc(OCc3noc(-c4cc(F)cc(C(F)(F)F)c4)n3)ccc12 [PT-75, 7-({5-[3-fluoro-5-(trifluoromethyl)phenyl](1,2,4-oxadiazol-3-yl)}methoxy)-3-(5-hydropyrazol-4-yl)chromen-4-one]"

# Same assay, conditions: at 1 μM; read-out: hALDH2 inhibition (IC50 hALDH2 column)
row,inhibition at 1 µM [%],SMILES
1,10,"O=c1c(-c2ccc(OCc3ccc(C(F)(F)F)nc3)cc2)coc2cc(OCc3cncc(C(F)(F)F)c3)ccc12 [PT-46, 7-{[5-(trifluoromethyl)(3-pyridyl)]methoxy}-3-(4-{[6-(trifluoromethyl)(3-pyridyl)]methoxy}phenyl)chromen-4-one]"
2,47,"CO/N=C(\N)c1ccc(-c2coc3cc(OCc4cccc(C(=O)OC)c4)ccc3c2=O)cc1 [PT-50, methyl 3-({3-[4-((1Z)-1-amino-2-methoxy-2-azavinyl)phenyl]-4-oxochromen-7-yloxy}methyl)benzoate]"
3,14,"NC(=O)c1ccc(-c2coc3cc(OCc4noc(-c5cc(F)cc(C(F)(F)F)c5)n4)ccc3c2=O)cc1 [PT-72, 4-[7-({5-[3-fluoro-5-(trifluoromethyl)phenyl](1,2,4-oxadiazol-3-yl)}methoxy)-4-oxochromen-3-yl]benzamide]"
